Test results from US6806257B1, “Flavones as inducible nitric oxide synthase inhibitors, cyclooxygenase-2 inhibitors and potassium channel activators” (priority 1999, dated 2004).
Entries after “also recorded” stand apart in the source; their conditions may differ.

Tests used:
COX-2 [1] = test: LPS-induced COX-2 expression in RAW264.7 macrophages (western/northern blot); format: cell-based, mouse
Procedure: Cells. RAW264.7, a mouse macrophage cell line, was obtained from American Type Culture Collection. Cells were cultured in RPMI-1640 medium (available from Gibco Life Technology, in Gaithersburg, Md.) supplemented with 2 mM L-glutamine, antibiotics (100 units/ml penicillin-A and 100 units/ml streptomycin) and 10% heat-inactivated fetal bovine serum (Gibco/BRL) and maintained at 37° C in a humidified incubator containing 5% CO2.
(§1) Western blots. Total cellular extract, cytosolic fractions (for IkB) and nuclear fraction (for p65 antibody) were prepared according to Muller et al., Immunobiology, 187, 233-256, 1993 and separated on sodium dodecyl sulfatepolyacrylamide minigels (8% for iNOS or COX-2, and 10% for IkB or p65) and transferred to immobilon polyvinylidene difluoride membranes (Millipore, Bedford, Mass.). The membrane was incubated overnight at 4° C. with 1% bovine serum albumin and then incubated with anti-iNos, COX-2, α-Tubulin monoclonal antibodies (Transduction Laboratories, Lexington, Ky.), anti-IkB or anti-p65 polyclonal antibodies (Santa Cruz Biochemicals, Santa Cruz, Calif.). iNOS, IkB, p65, Cox-2, α-Tubulin were detected by NBT and BCIP staining (Sigma Chemical Co., St. Louis, Mo.).

COX-2 [2] = test: LPS-induced COX-2 mRNA in Bcl-2-overexpressed RAW264.7 cells; format: cell-based, mouse; conditions: 20 μg/ml, LPS 100 ng/ml
iNOS [3] = test: iNOS expression in cultured primary smooth muscle cells from porcine cerebral arteries (immunostaining, Western blot); format: cell-based
Procedure: Culture of smooth muscle cells. The entire brain with dura attached was removed and placed in ice-cold sterile phosphate-buffered saline (PBS) (140 mM NaCl, 4 mM KCl, 1 mM KH2PO4, pH 7.4) containing antibiotics (100 U/ml penicillin G potassium, 100 μg/ml streptomycin sulfate, and 0.25 μg/ml fungizone) (Fisher Scientific, Springfield, N.J.). The arteries of the circle of Willis were removed and cleaned of surrounding tissue under a dissecting microscope. The arteries were then placed on a sterile petri dish and sliced longitudinally. The luminal surface was rubbed with a sterile cotton swab to remove endothelial cells. The vessels were placed in DMEM (Dulbecco's Modified Eagle Medium, Life Technologies, Grand Island, N.Y.) containing antibiotics and stored overnight at 4° C. The vessels were cut into approximately 2×2-mm explants, placed in a 10 cm petri dish, covered with DMEM containing antibiotics plus 20% FBS (fetal bovine serum, Sigma Chemical Co., St Louis, Mo.), and placed in an incubator in an atmosphere of 5% CO2 in air at 37° C. […]
Western blots. […] Expression of iNOS was detected by NBT and BCIP staining (Sigma Chemical Co., St. Louis, Mo.).
Photomicrographs of immunofluorescence at 20× were immediately taken with an Olympus fluorescence microscope fitted with an FITC filter. […]

iNOS [4] = test: LPS-induced nitrite production and iNOS expression in Bcl-2-overexpressed RAW264.7 cells; format: cell-based, mouse; conditions: 20 μg/ml, LPS 100 ng/ml, Bcl-2/RAW-1 and Bcl-2/RAW-2 cells
NF-kB (p65) / IkB = test: Nuclear p65 / cytosolic IkB western blot in LPS-treated RAW264.7 macrophages; format: cell-based, mouse; conditions: 20 μg/ml, 100 ng/ml LPS for 30 minutes
Procedure: as §1
NF-kB is a transcription factor that is activated in response to stimulation by LPS, and activation of NF-kB is an essential factor in inducing iNOS gene expression in macrophages (Kim, Y. M., Biochem. Biophys. Res. Commun. 236, 655-660, 1997). To assess the effect of these compounds (20 μg/ml) on early stage of iNOS gene expression, the activation of NF-kB in RAW264.7 macrophages was examined using the electrophoretic mobility shift assay (EMSA) (FIGS. 6i and 6ii).

nNOS = nNOS expression in cultured primary smooth muscle cells from porcine cerebral arteries; format: cell-based; conditions: 30 μM and 60 μM
[5] = tested on: porcine cerebral arteries; test: Relaxation elicited by transmural nerve stimulation (TNS) in cerebral arterial segments; conditions: acute administration 30 μM, U-46619 tone
Procedure: In vitro tissue bath studies. The arterial segment (4 mm long) of the circle of Willis was dissected and cannulated with a stainless-steel rod (30-28 gauge) of hemispherical section, and a short piece of platinum wire, and mounted horizontally in a plastic tissue bath containing 6 ml of Krebs' bicarbonate solution. The platinum wire was bent into a U shape and anchored to a gate. The stainless-steel rod was connected to a stain gauge transducer (UC3, available from Gould) for isometric recording of changes in force. The temperature of Krebs' solution in the tissue baths, equilibrated with 95% O2 and 5% CO2, was maintained at 37° C. Tissues were equilibrated in the Krebs' solution for an initial 30 minutes and were mechanically stretched to a resting tension of 0.75 g for another 30 minutes. The segments of the circle of Willis were precontracted with 9,11-dideoxy-9α,11α-epoxymethanoprostagladin F2α(U-46619, 1 μM) to induce an active muscle tone of 0.5-0.75 g. Experimental drugs such as L-arginine and Oroxylin A of various concentrations, and TNS at 2,4,8 Hz were applied to induce relaxation. The arteries were then washed with pre-warmed Krebs' solution. […] Stimulation parameters were continuously monitored on a Tektronix oscilloscope. […] The magnitude of a vasodilator response induced by experimental drugs and TNS was expressed as a percentage of the maximum response induced by PPV. […]

`COc1c(O)cc2oc(-c3ccccc3)cc(=O)c2c1O` [oroxylin A, 5,7-dihydroxy-6-methoxy flavone] was tested, and the “LPS-induced COX-2 gene expression (protein and mRNA)” value (COX-2 [1]) was “most potent among the compounds tested; also recorded: inhibited”, the “LPS-induced COX-2 mRNA” value (COX-2 [2]) was “inhibited” and the “LPS-induced iNOS-immunoreactive cultured smooth muscle cells” value (iNOS [3]; LPS 10 μg/ml 20 hours, concomitant 60 μM) was “drastically decreased; also recorded: inhibition”. For the same compound, the “LPS-induced iNOS proteins, Western blot” value (iNOS [3]; LPS 10 μg/ml, 30 μM and 60 μM) was “decreased by oroxylin A in a concentration-dependent manner”, the “LPS-induced iNOS gene expression” value (iNOS [4]) was “inhibited” and the LPS-induced nitrite production (iNOS [4]) was “inhibited”. The “LPS-induced increase of nuclear p65 and decrease of cytosolic IkB” value (NF-kB (p65) / IkB) was “significantly inhibited”, the “expression of nNOS” value (nNOS) was “did not affect” and the “relaxation elicited by TNS at 2, 4, and 8 Hz” value [5] was “slightly and significantly enhanced; also recorded: increased”.
